Measurements: patent publication US7514582B2, “2′-substituted 1,1′-biphenyl-2-carboxamides, processes for their preparation, their use as medicaments, and pharmaceutical preparations comprising them” (Sanofi-Aventis Deutschland GmbH, priority 1999, dated 2009)

With `O=C(NCc1ccccc1-c1ccccc1C(=O)NCCc1ccccn1)c1ccccc1` [Example 4 b, 2′-(Benzoylaminomethyl)biphenyl-2-carboxylic acid 2-(2-pyridyl)ethylamide] the melting point was 135 °C.
`CC(C)CCNC(=O)c1ccccc1-c1ccccc1CNC(=O)Nc1ccccc1` [Example 5 a, 2′-[(3-Phenylureido)methyl]biphenyl-2-carboxylic acid (3-methylbutyl)amide] showed a melting point of 194 °C.
Compound `O=C(NCc1ccccc1-c1ccccc1C(=O)NCCc1ccccn1)Nc1ccccc1` [Example 5 b, 2′-[(3-Phenylureido)methyl]biphenyl-2-carboxylic acid 2-(2-pyridyl)ethylamide] has a melting point of 99 °C.
